The values that follow come from patent US20250380697A1, “ISOXAZOLINE DERIVATIVE COMPOUND AND INSECTICIDAL COMPOSITION COMPRISING SAME” (KYUNG NONG CORPORATION, priority 2022, published 2025).

Each structure is given as a SMILES string.

Common to all, as to format: in vivo
One series deals with Maruca vitrta. As to the kind of experiment: Pesticidal activity against Maruca vitrta, artificial feed-dipping method. As to conditions: counted 24, 48, 72 hours, time not given. The procedure: Cabbage (Daiya) leaves were cut into pieces with a size of 1 cm×1 cm×1 cm, dipped in the pesticide composition where the compound of Synthesis Example 2 was diluted (the solvent=distilled water+acetone 50,000 mg/L+Triton X-100 100 mg/L) for 30 seconds, and then sufficiently shade-dried by placing them on aluminum foil. In this case, the artificial feed used was prepared by a process, in which (1) 13 g of agar powder and 625 mL of secondary distilled water were added into a 1 L beaker and boiled in the microwave for 10 minutes; (2) the agar boiled in the microwave was added into a blender and then 75 g of soybean powder, 20 g of red bean powder, 10 g of malt powder, and 175 mL of secondary distilled water were added thereto and mixed together; and (3) after the resulting mixture was cooled to 50° C., 5 g of a vitamin mixture, 4 g of ascorbic acid, 1 g of sorbic acid, 1 g of β-sitosterol, 10 g of glucose, 10 g of cellulose, 3 g of cholesterol, 1.5 g of methyl-p-hydroxybenzoate, 0.5 g of aureomycin, and 0.4 g of fumidil B were added thereto, mixed together, and then thoroughly cooled. Before placing the artificial feed pieces in a petri dish (¢90 mm×15 mm), parafilm (5.1 cm×5.1 cm) was placed on top of a distilled water-treated filter paper (Ø90 mm) to maintain humidity, and the artificial feed pieces were placed on top of the parafilm.
Then, the second to the third instar larvae of Maruca vitrta were repeatedly inoculated 3-5 times, 10 larvae per inoculation. In this case, the Maruca vitrta larvae used were those purchased from the Bio Utilization Institute (Andong, Korea). Then, the Maruca vitrta larvae were stored under 16 hours of light: 8 hours of dark, 25±1° C., and 50-60% relative humidity, and the number of live Maruca vitrta larvae was counted 24, 48, and 72 hours after inoculation. Thereafter, the larvae mortality rate was calculated in the same manner as in Test Example 1 above.

For another series, the system named is Lymantria dispar. As to the kind of experiment: Pesticidal activity against Lymantria dispar, leaf-dipping method. The note with it: maple leaf-dipping, counted 24, 48, 72 hours, time not given, read-out: mortality rate, Lymantria dispar. The method, then: Maple leaves were dipped in the pesticide composition where the compound of Synthesis Example 2 was diluted (the solvent=distilled water+acetone 50,000 mg/L+Triton X-100 100 mg/L) for 30 seconds, and sufficiently shade-dried by placing them on aluminum foil. Then, in order to maintain the humidity of the shade-dried maple leaves, they were placed on a petri dish (9.0 cm in diameter) covered with a filter paper (9.0 cm in diameter) treated with distilled water, and repeatedly inoculated 4 times of five early third instar larvae of Lymantria dispar. In particular, Lymantria dispar larvae used were collected in Jukjang-myeon, Buk-gu, Pohang-si, Gyeongsangbuk-do, Korea. Then, Lymantria dispar larvae were stored under 16 hours of light: 8 hours of dark, 25±1° C., and 50-60% relative humidity, and the number of Lymantria dispar larvae was counted 24, 48, and 72 hours after inoculation. Thereafter, the larvae mortality rate was calculated in the same manner as in Test Example 1 above.

A further series concerns Rhopobota naevana. Briefly: Pesticidal activity against Rhopobota naevana, spray method. The note with it: spray on apple leaves, counted 24, 48, 72 hours, time not given, read-out: mortality rate, Rhopobota naevana. The procedure: Apple leaves were collected along with the stems, and the leaves of 3-4 base were cut into 5 cm×5 cm×5 cm pieces and placed in a tray oasis submerged in water. Then, the pesticide composition where the compound of Synthesis Example 2 was diluted (the solvent=distilled water+acetone 50,000 mg/L+Triton X-100 100 mg/L) was loaded into a 150 mL small sprayer and sprayed to the apple leaves, and 1 hour thereafter, the […] larvae were repeatedly inoculated 5-6 times, one per apple leaf. In particular, the Rhopobota naevana larvae were collected in the R&D Center of Kyung Nong Co., Ltd. (Gyeongju, Korea), and they were used after acclimatization indoors for 24 hours. Then, the Rhopobota naevana larvae were stored under the conditions of 16 hours of light and 8 hours of dark, 25±1° C. and relative humidity of 50-60%, and the number of live Rhopobota naevana larvae was counted 24, 48, and 72 hours after the inoculation. Thereafter, the larvae mortality rate was calculated in the same manner as in Test Example 1 above.

For series [1], the system named is Resistant Plutella xylostella. Briefly: Resistance (tolerance) test against Plutella xylostella. As to conditions: leaf-dipping, chlorantraniliprole-selected resistant individuals, counted 24 and 48 hours, read-out: mortality rate, Resistant Plutella xylostella. The method, then:
Resistance (tolerance) tests for pesticide compositions were performed on Plutella xylostella. In this case, the Plutella xylostellas used were resistant individuals obtained as follows: radish sprouts were germinated using a moth breeding acrylic cage (25 cm×30 cm×30 cm) to induce egg-laying in a breeding room in the Chungbuk National University (Korea), and the adult insects were collected using an InsectaVac Aspirator (BioQuip®) and induced to lay eggs again by applying a selection pressure using diamide-based chlorantraniliprole at 12.5 ppm once a month to breed for multiple generations.
Cabbage leaves were dipped in the pesticide composition where the compound was diluted (the solvent=distilled water+acetone 50,000 mg/L+Triton X-100 100 mg/L) for 30 seconds, and sufficiently shade-dried. Then, the shade-dried cabbage leaves were placed in a petri dish (8.8 cm in diameter) covered with a filter paper and repeatedly inoculated 3-5 times with third instar larvae of Plutella xylostella, which are resistant individuals, 10 larvae per inoculation. Then, the Plutella xylostella larvae were stored under the conditions of 16 hours of light and 8 hours of dark, 25±1° C., and relative humidity of 50-60%, and the number of live […] larvae was counted 24 and 48 hours after the inoculation. Thereafter, the larvae mortality rate was calculated in the same manner as in Test Example 1 above, and the results are shown in Table 2 below.

Another series relates to Plutella xylostella. Briefly: Pesticidal activity against Plutella xylostella, leaf-dipping method. As to conditions: 48 h, read-out: mortality rate, Plutella xylostella.

In general, mortality refers to the percentage killed.

For the compound `Cc1cc(C2=NOC(c3cc(Cl)cc(C(F)(F)F)c3)(C(F)(F)F)C2)ccc1C(=O)NC(=O)C1CC1` (racemic) [Synthesis Example 2], the “mortality rate, Maruca vitrta” value with Maruca vitrta (0.1 ppm) came to 100%. For the same compound, the “mortality rate, Maruca vitrta” value in the series with Maruca vitrta (1 ppm) was determined as 100%. Moreover, in the series on Lymantria dispar, the mortality at 0.01 ppm came out at 74% and the mortality at 0.1 ppm was 100%. For the same compound, in the series with Rhopobota naevana, the mortality at 0.1 ppm came to 100% and the mortality at 1 ppm came out at 100%. Also, in series [1], the mortality at 0.1 ppm is 93%, the mortality at 0.3 ppm was 96% and the mortality at 1 ppm worked out at 100%. Besides, in the series on Plutella xylostella, the mortality at 0.1 ppm was 100%, the mortality at 1 ppm amounted to 100% and the mortality at 10 ppm is 100%.
In the case of `CON=CNC(=O)c1ccc(C2=NOC(c3cc(Cl)cc(Cl)c3)(C(F)(F)F)C2)cc1C` (stereo not shown) [Comparative Example 1, fluxametamide], the “mortality rate, Maruca vitrta” value with Maruca vitrta (0.1 ppm) came out at 23%. Besides, the “mortality rate, Maruca vitrta” value with Maruca vitrta (1 ppm) is listed as 90%. For the same compound, in the series with Lymantria dispar, the mortality at 0.01 ppm was determined as 5% and the mortality at 0.1 ppm turned out to be 95%. Moreover, in the series on Rhopobota naevana, the mortality at 0.1 ppm was 83% and the mortality at 1 ppm turned out to be 100%. Further, in series [1], the mortality at 0.1 ppm came out at 34%, the mortality at 0.3 ppm came out at 38% and the mortality at 1 ppm was found to be 58%. In the series on Plutella xylostella, the mortality at 0.1 ppm came to 100%, the mortality at 1 ppm was 100% and the mortality at 10 ppm came out at 100%.
`CNC(=O)c1cc(Cl)cc(C)c1NC(=O)c1cc(Br)nn1-c1ncccc1Cl` [Comparative Example 2, chlorantraniliprole]: the figures for the “mortality rate, Maruca vitrta” value in the series on Maruca vitrta (0.1 ppm) and with Maruca vitrta (1 ppm) were 33% and 83%, respectively. The mortality at 0.01 ppm in the series with Lymantria dispar stood at 0%. In addition, the values for the mortality at 0.1 ppm in the series on Lymantria dispar, in the series on Rhopobota naevana and in the series with Plutella xylostella were 10%, 100% and 21%, respectively. The mortality at 1 ppm stood at 100% in the series on Rhopobota naevana, 34% in series [1] and 100% in the series on Plutella xylostella. In addition, the mortality at 10 ppm in the series with Plutella xylostella was found to be 100%.
